Measurements published in patent US10196390B2, “TYK2 inhibitors and uses thereof” (Nimbus Lakshmi, Inc., priority 2014, dated 2019).

Tests used:
[1] = biological target: TYK2 (Homo sapiens (Human), UniProt P29597); test: Tyk2 activity inhibition assay (radioactive kinase assay / Caliper assay); format: biochemical
Procedure: Peptide substrate, [[…]], (20 μM) is prepared in reaction buffer (20 mM Hepes pH 7.5, 10 mM MgCl2, 1 mM EGTA, 0.02% Brij35, 0.02 mg/mL BSA, […], 2 mM DTT, 1% DMSO. TYK2 (Invitrogen) kinase is added, followed by compounds in DMSO. 33PATP is added to initiate the reaction in ATP at 10 μM. Kinase reaction is incubated for 120 min at room temp and reactions are spotted onto P81 ion exchange paper (Whatman #3698-915), and then washed extensively in 0.75% phosphoric acid, prior to reading the radioactivity counts. For JAK2 (Invitrogen) kinase assay the peptide substrate poly[Glu:Tyr](4:1), 0.2 mg/ml is used, in the reaction carried out the same as for TYK2.
(§1) The caliper machine employs an off chip mobility shift assay to detect phosphorylated peptide substrates from kinase assays, using microfluidics technology. The assays are carried out at ATP concentration equivalent to the ATP Km, and at 1 mM ATP. Compounds are serially diluted in DMSO then further diluted in assay buffer (25 mM HEPES, pH 7.5, 0.01% Brij-35, 0.01% Triton, 0.5 mM EGTA). 5 ul of diluted compound was added into wells first, then 10 ul of enzyme mix was added into wells, followed by 10 uL of substrate mix (peptide and ATP in 10 mM MgCl2) to start reaction. Reaction was incubated at 28° C. for 25 min and then added 25 ul stop buffer (100 mM HEPES, 0.015% Brij-35, 50 mM EDTA), followed by reading with Caliper. JAK2 at 1 nM final concentration and TYK2 at 9.75 nM are from Carna, and substrates used are ATP at 20 and 16 uM, respectively. JAK2 assay uses peptide 22 and TYK2 uses peptide 30 (Caliper), each at 3 uM.

[2] = biological target: JAK2 (Homo sapiens (Human), UniProt O60674); test: JAK2 activity inhibition assay (radioactive kinase assay / Caliper assay); format: biochemical; conditions: read-out: JAK2 Ki
Procedure: as §1, with “The assays are carried out at ATP concentration equivalent to the ATP Km, and at 1 mM ATP.” left out, “Caliper.” for “Caliper. JAK2 at 1 nM final concentration and TYK2 at 9.75 nM are from Carna, and substrates used are ATP at 20 and 16 uM, respectively. JAK2 assay uses peptide 22 and TYK2 uses peptide 30 (Caliper), each at 3 uM.”

Chain of TYK2 (P29597 whole entry): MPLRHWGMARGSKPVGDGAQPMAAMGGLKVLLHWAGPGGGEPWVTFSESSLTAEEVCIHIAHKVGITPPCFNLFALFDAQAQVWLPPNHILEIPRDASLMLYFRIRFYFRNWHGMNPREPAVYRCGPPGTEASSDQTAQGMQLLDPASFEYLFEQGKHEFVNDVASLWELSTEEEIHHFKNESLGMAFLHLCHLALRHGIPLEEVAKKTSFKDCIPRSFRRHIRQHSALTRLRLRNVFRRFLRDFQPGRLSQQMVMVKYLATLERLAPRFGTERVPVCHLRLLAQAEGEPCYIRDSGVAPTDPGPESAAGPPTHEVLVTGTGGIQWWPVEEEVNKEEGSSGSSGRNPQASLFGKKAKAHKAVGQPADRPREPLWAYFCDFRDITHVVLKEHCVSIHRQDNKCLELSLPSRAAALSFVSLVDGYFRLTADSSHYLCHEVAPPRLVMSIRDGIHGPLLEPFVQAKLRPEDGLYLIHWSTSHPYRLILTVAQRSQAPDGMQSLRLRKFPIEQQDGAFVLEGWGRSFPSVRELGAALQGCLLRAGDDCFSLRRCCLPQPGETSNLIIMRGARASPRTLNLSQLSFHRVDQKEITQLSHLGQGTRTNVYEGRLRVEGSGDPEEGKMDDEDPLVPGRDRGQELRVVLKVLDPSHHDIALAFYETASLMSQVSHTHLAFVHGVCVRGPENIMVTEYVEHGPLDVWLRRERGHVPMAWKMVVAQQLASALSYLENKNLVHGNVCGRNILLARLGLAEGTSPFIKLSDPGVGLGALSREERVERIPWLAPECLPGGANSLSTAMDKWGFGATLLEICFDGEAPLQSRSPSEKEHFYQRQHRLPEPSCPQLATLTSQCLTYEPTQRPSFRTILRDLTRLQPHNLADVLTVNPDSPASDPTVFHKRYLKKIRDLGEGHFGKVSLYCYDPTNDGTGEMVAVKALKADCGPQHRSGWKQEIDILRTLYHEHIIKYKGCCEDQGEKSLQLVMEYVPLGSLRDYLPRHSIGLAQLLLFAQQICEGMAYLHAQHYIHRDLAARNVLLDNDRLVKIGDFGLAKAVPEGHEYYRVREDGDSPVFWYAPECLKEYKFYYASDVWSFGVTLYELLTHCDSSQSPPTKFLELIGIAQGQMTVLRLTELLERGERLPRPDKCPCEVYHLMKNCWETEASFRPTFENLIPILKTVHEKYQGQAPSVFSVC
Chain of JAK2 (O60674 whole entry): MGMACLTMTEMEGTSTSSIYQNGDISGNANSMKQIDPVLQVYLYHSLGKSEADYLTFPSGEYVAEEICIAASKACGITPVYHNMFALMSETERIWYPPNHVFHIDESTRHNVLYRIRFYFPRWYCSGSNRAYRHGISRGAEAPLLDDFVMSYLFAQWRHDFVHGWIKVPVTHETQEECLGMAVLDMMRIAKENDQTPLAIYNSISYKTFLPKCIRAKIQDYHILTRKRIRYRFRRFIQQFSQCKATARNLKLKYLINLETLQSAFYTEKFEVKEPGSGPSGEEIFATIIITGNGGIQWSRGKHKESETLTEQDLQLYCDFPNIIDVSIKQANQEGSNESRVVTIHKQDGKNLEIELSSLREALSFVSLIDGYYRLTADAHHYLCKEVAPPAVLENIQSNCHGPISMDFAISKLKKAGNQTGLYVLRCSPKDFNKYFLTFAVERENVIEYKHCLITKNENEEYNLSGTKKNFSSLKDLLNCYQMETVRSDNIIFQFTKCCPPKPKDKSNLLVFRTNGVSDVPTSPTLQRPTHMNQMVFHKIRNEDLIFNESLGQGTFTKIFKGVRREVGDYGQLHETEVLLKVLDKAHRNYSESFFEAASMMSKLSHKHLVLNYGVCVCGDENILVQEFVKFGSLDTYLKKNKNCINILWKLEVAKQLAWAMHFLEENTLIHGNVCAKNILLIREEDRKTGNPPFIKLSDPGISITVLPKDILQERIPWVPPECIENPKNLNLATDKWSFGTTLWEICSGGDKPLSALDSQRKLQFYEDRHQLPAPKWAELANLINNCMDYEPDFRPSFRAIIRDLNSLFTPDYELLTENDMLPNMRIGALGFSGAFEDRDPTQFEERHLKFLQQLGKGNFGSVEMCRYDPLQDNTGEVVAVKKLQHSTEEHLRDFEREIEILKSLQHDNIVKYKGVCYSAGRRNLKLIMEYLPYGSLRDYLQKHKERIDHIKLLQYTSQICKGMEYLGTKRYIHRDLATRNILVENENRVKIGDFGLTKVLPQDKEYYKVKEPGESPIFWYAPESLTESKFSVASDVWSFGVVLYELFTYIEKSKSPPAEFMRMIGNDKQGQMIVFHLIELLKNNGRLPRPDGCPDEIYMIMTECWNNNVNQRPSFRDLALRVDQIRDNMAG

Row | Compound | Ki [1] | Ki [2]
1 | O=C(Cc1ccc(Nc2nc(-c3c(F)cccc3F)nc3c2C(=O)NC3)cc1)NCCO [Compound I-79, 2-(4-((2-(2,6-difluorophenyl)-5-oxo-6,7-dihydro-5H-pyrrolo[3,4-d]pyrimidin-4-yl)amino)phenyl)-N-(2-hydroxy-ethyl)acetamide] | < 0.01 µM | 0.1 to 1 µM
2 | O=C(Cc1ccc(Nc2nc(-c3c(F)cccc3F)nc3c2C(=O)NC3)cc1)N[C@@H]1CCCNC1 [Compound I-61, (R)-2-(4-((2-(2,6-difluorophenyl)-5-oxo-6,7-dihydro-5H-pyrrolo[3,4-d]pyrimidin-4-yl)amino)phenyl)-N-(piperidin-3-yl)acetamide] | < 0.01 µM | 0.1 to 1 µM
3 | CCNC(=O)Cc1ccc(Nc2nc(-c3c(F)cccc3F)nc3c2C(=O)NC3)cn1 [Compound I-23, 2-(5-((2-(2,6-difluorophenyl)-5-oxo-6,7-dihydro-5H-pyrrolo[3,4-d]pyrimidin-4-yl)amino)pyridin-2-yl)-N-ethylacetamide] | 0.01 to 0.1 µM | > 1 µM
4 | CCNC(=O)Cc1ccc(Nc2nc(-c3c(F)cncc3F)nc3c2C(=O)NC3)cc1 [Compound I-208, 2-(4-((2-(3,5-difluoropyridin-4-yl)-5-oxo-6,7-dihydro-5H-pyrrolo[3,4-d]pyrimidin-4-yl)amino)phenyl)-N-ethylacetamide] | 0.1 to 1 µM | > 1 µM
5 | O=C(Cc1ccc(Nc2nc(-c3c(F)cccc3F)nc3c2C(=O)NC3)cc1)N[C@@H]1CCNC1 [Compound I-73, (R)-2-(4-((2-(2,6-difluorophenyl)-5-oxo-6,7-dihydro-5H-pyrrolo[3,4-d]pyrimidin-4-yl)amino)phenyl)-N-(pyrrolidin-3-yl)acetamide] | < 0.01 µM | 0.1 to 1 µM
6 | COC(=O)C1COCCN1C(=O)Cc1ccc(Nc2nc(-c3c(F)cccc3F)nc3c2C(=O)NC3)cc1 (stereo not shown) [Compound I-201, methyl 4-(2-(4-((2-(2,6-difluorophenyl)-5-oxo-6,7-dihydro-5H-pyrrolo[3,4-d]pyrimidin-4-yl)amino)phenyl)acetyl)morpholine-3-carboxylate] | < 0.01 µM | 0.1 to 1 µM
7 | O=C(Cc1ccc(Nc2nc(-c3c(F)cccc3F)nc3c2C(=O)NC3)cn1)NC1CCNCC1 [Compound I-19, 2-(5-((2-(2,6-difluorophenyl)-5-oxo-6,7-dihydro-5H-pyrrolo[3,4-d]pyrimidin-4-yl)amino)pyridin-2-yl)-N-(piperidin-4-yl)acetamide] | 0.1 to 1 µM | > 1 µM
8 | COC(=O)Cc1ncc(Nc2nc(-c3c(F)cccc3F)nc3c2C(=O)NC3)cn1 [Compound I-166, methyl 2-(5-((2-(2,6-difluorophenyl)-5-oxo-6,7-dihydro-5H-pyrrolo[3,4-d]pyrimidin-4-yl)amino)pyrimidin-2-yl)acetate] | 0.1 to 1 µM | 
9 | O=C1NCc2nc(-c3c(F)cccc3F)nc(Nc3ccc(C4CCCCC4)cc3)c21 [Compound I-197, 4-((4-cyclohexylphenyl)amino)-2-(2,6-difluorophenyl)-6,7-dihydro-5H-pyrrolo[3,4-d]pyrimidin-5-one] | 0.1 to 1 µM | 
10 | Cc1ccc(Nc2nc(-c3c(F)cccc3F)nc3c2C(=O)NC3)cc1F [Compound I-292, 2-(2,6-difluorophenyl)-4-((3-fluoro-4-methylphenyl)amino)-6,7-dihydro-5H-pyrrolo[3,4-d]pyrimidin-5-one] | 0.01 to 0.1 µM | 
11 | O=C1NCc2nc(-c3c(F)cccc3F)nc(Nc3ccc(S(=O)(=O)C(F)(F)F)cc3)c21 [Compound I-236, 2-(2,6-difluorophenyl)-4-((4-((trifluoromethyl)sulfonyl)phenyl)-amino)-6,7-dihydro-5H-pyrrolo[3,4-d]pyrimidin-5-one] | 0.01 to 0.1 µM | 
12 | COc1ccc(Nc2cc(-c3c(F)cccc3F)nc3c2C(=O)N[C@H]3C)nc1 [Compound I-241, (S)-2-(2,6-difluorophenyl)-4-((5-methoxypyridin-2-yl)amino)-7-methyl-6,7-dihydro-5H-pyrrolo[3,4-b]pyridin-5-one] | 0.1 to 1 µM | 
